Experimental data: US10092537B2, “Use for PAI-1 inhibitor” (RENASCIENCE CO., LTD., priority 2013, dated 2018)

What was measured:
CML cells [1] = test: Chronic myelogenous leukemia model mice, imatinib with compound d or compound e (Experimental Example 17); assay type: in vivo
Experimental: (§1) Group 1: placebo group (physiological saline was administered via gavage)
(§2) Group 2: imatinib group (imatinib [150 mg/kg/day] was administered via gavage)
Group 3: imatinib+compound d group (imatinib [150 mg/kg/day] and compound d [10 mg/kg/day] were administered via gavage)
Group 4: imatinib+compound e group (imatinib [150 mg/kg/day] and compound e [10 mg/kg/day] were administered via gavage)
8 days after (day 8) the day (day 0) on which CML cells were intravenously inoculated, administration of test drugs to the groups was started. The placebo group and the imatinib group were administered the respective test drugs once a day from day 8 to day 14 (7 doses in total). The imatinib+compound d group and imatinib+compound e group were administered imatinib once a day from day 8 to day 14 (7 doses in total), and also administered compound d or e once a day from day 8 to day 14 (7 doses in total).

[2] = system: CML cells (32Dp210-GFP cells); test: Chronic myelogenous leukemia model mice, imatinib and compound a (Experimental Example 11); assay type: in vivo, C3H/HeJ mice; conditions: imatinib 150 mg/kg/day alone
Experimental: p210(BCR-ABL) gene was inserted into a MIGR1 vector, and GFP cDNA was further incorporated as a reporter gene downstream of the gene (hereinafter, the vector is referred to as “p210-GFP”). p210-GFP was infected with 32D cells (C3H/HeJ mice cell line), and chronic myelogenous leukemia (hereinafter, referred to as “CML”) cells were prepared. 2.5×10^5 of the thus-obtained CML cells (32Dp210(BCR-ABL)-GFP cells, hereinafter, referred to as “32Dp210-GFP cells”) were intravenously administered into the retro-orbital plexus of C3H/HeJ mice. 7 to 10 days after the transplantation, the abundance ratio of GFP cells in the peripheral blood was analyzed, and mice with more than 3% of abundance ratio were used as chronic myelogenous leukemia model mice in the following experiments.
15 chronic myelogenous leukemia model mice prepared by using the procedure described above were divided into the following 3 groups (each group: n=15), and a test drug was administered to the mice in accordance with the protocol shown in FIG. 15A.
as §1, §2
Group 3: imatinib+compound a group (imatinib [150 mg/kg/day] and compound a [100 mg/kg/day] were administered via gavage)
10 days (day 10) after the day on which CML cells were intravenously inoculated (day 0), administration of test drugs to the groups was started. The placebo group and the imatinib group were administered the respective test drugs once a day from day 10 to day 16 (7 doses in total). The imatinib+compound a group was administered imatinib once a day from day 10 to day 16 (7 doses in total), and also administered compound a once a day from day 10 to day 14 (5 doses in total).
As described above, 32Dp210-GFP includes GFP as a reporter gene, and thus, the CML cells having 32Dp210-GFP inserted (32Dp210-GFP cells) are GFP-positive. Therefore, using FACS (FACS (BD Biosciences: FACSCalibur), the frequency of CML cells (32Dp210-GFP cells) in mononucleic cells of the bone marrow and spleen was measured and compared between the imatinib group and the imatinib+compound a group.

[3] = system: CML cells (32Dp210-GFP cells); test: Chronic myelogenous leukemia model mice, imatinib and compound c (Experimental Example 12); assay type: in vivo; conditions: imatinib 150 mg/kg/day alone
Experimental: Chronic myelogenous leukemia model mice prepared in the same manner as in Experimental Example 11 were divided into the following 3 groups (each group: n=10), and the groups were administered respective test drugs in accordance with the protocol shown in FIG. 15A.
as §1, §2
(§3) Group 3: imatinib+compound c group (imatinib [150 mg/kg/day] and compound c [10 mg/kg/day] were administered via gavage)
8 days (day 8) after the day on which CML cells (32Dp210-GFP cells) were intravenously inoculated (day 0), administration of the test drugs to the groups was started. The placebo group and the imatinib group were administered the respective test drugs once a day from day 8 to day 14 (7 doses in total). The imatinib+compound c group was administered imatinib once a day from day 8 to day 14 (7 doses in total), and also administered compound c once a day from day 8 to day 14 (7 doses in total).

CML cells [4] = test: Chronic myelogenous leukemia model mice, imatinib, PAI-1 inhibitor and G-CSF neutralizing antibody (Experimental Example 14); assay type: in vivo
Experimental: In this experiment, whether G-CSF is involved in the effect was examined. Compound a was used as a PAI-1 inhibitor.
as §1
Group 2: IM group (imatinib [150 mg/kg/day] was administered via gavage)
Group 3: IM+anti-G-CSF group (imatinib [150 mg/kg/day] was administered via gavage, G-CSF neutralizing antibody [500 μg/kg/day] was subcutaneously administered)
Group 4: IM+TM group (imatinib [150 mg/kg/day] and compound a [100 mg/kg/day] were administered via gavage)
Group 5: IM+TM+anti-G-CSF group (imatinib [150 mg/kg/day] and compound a [100 mg/kg/day] were administered via gavage, and G-CSF neutralizing antibody [500 μg/kg/day] was subcutaneously administered)
The day on which CML cells were inoculated was set as day 0, and each test drug was administered from day 8 to day 14 (7 doses in total).

CML cells [5] = test: Chronic myelogenous leukemia model mice, CML cells engrafted onto bone marrow by FACS (Experimental Example 15); assay type: in vivo
Experimental: Chronic myelogenous leukemia model mice prepared in accordance with the procedure of Experimental Example 11 (1) were divided into 3 groups (each group: n=15) and administered respective test drugs.
as §1, §2, §3
8 days (day 8) after the day on which CML cells were intravenously inoculated (day 0), administration of test drugs to the groups was started. The placebo group and the imatinib group were administered the respective test drugs once a day from day 8 to day 14 (7 doses in total). The imatinib+compound c group was administered imatinib once a day from day 8 to day 14 (7 doses in total), and also administered compound c once a day from day 8 to day 14 (7 doses in total).
CML cells engrafted onto bone marrow were analyzed by FACS immediately before the administration of a test drug (day 8; “immediately before antitumor agent treatment” in FIG. 19), immediately after the completion of administration of a test drug (day 14; “immediately after antitumor agent treatment” in FIG. 19), and day 28 from the start of administration of a test drug (day 36; “after 28 days” in FIG. 19). […] About 50% leukemia cells were grafted on the bone marrow immediately before administration of a test drug (day 8; “immediately before antitumor agent treatment” in FIG. 19). After the tumor-bearing mice were administered a test drug 7 times (day 14), the proportion of CML cells was analyzed. […] All of the mice in the group administered physiological saline died.

CML cells [6] = test: Chronic myelogenous leukemia model mice, compound a alone, imatinib, combination (Experimental Example 16); assay type: in vivo; conditions: imatinib 150 mg/kg/day alone
Experimental: as §1
Group 2: compound a group (compound a [100 mg/kg/day] was administered via gavage)
Group 3: imatinib group (imatinib [150 mg/kg/day] was administered via gavage)
Group 4: imatinib+compound a group (imatinib [150 mg/kg/day] and compound a [100 mg/kg/day] were administered via gavage)
10 days after (day 10) the day on which CML cells were intravenously inoculated (day 0), administration of test drugs to the groups was started. The placebo group, the compound a group, and the imatinib group were administered the respective test drugs once a day from day 10 to day 16 (7 doses in total). The imatinib+compound a group was administered imatinib once a day from day 10 to day 16 (7 doses in total), and also administered compound a once a day from day 10 to day 16 (7 doses in total).

hematopoietic stem cells [7] = test: Frequency and absolute number of hematopoietic stem cells after bone-marrow transplantation (Experimental Example 8 (1)); assay type: in vivo, mice; conditions: 1 and 3 weeks after bone-marrow transplantation; compared with control group
Experimental: In accordance with the procedure of Experimental Example 7 (1), bone marrow was transplanted, and tPA or compound a was administered in the same manner as in Experimental Example 7. Physiological saline was administered to a control group. 1 and 3 weeks after bone-marrow transplantation, 12 mice of each group were measured for the number of bone-marrow mononucleic cells (BM MNC), the frequency and absolute number of Lin-SLAM cells, and the frequency and absolute number of LSK-CD34 negative cells.

hematopoietic stem cells [8] = test: Cell cycle (Ki-67, BrdU) and apoptosis (Annexin V) of bone-marrow cells 1 week after bone-marrow transplantation (Experimental Example 9); assay type: in vivo, mice
Experimental: In accordance with Experimental Example 7 (1), bone-marrow transplantation was conducted, and after the transplantation, physiological saline (control group), tPA (tPA-administered group), or compound a (compound a-administered group) was administered.
1 week after bone-marrow transplantation, the bone marrow was collected, and Ki-67 protein, which is a cell division marker, was immunostained with anti-Ki-67-FITC antibody (BD Bioscience) to analyze the cells in the cell-division cycle by FACSCalibur.
Subsequently, the number of Ki-67 positive cells in the cells of LSK fraction was examined to confirm that the proliferation of hematopoietic stem cells is promoted by compound a.
In addition, to more accurately detect the cells that moved to the S phase, 5-bromo-2-deoxyuridine (BrdU)-FITC (BD Pharmingen) was administered to the control group, tPA group, and compound a-administered group 1 week after bone-marrow transplantation, 3 hours before the collection of bone marrow. 6 mice were used for each group.
Because BrdU is a thymine derivative, BrdU, substituting for thymine, is incorporated into genomic DNA or the like during DNA replication. BrdU more specifically reflects the S phase than Ki-67 protein.
1 week after bone-marrow transplantation, bone marrow was collected from the control group, tPA group, and compound a-administered group (6 mice for each group), and Annexin V, which appears specifically in apoptosis, was detected with anti-Annexin V antibody immunostaining.

hematopoietic stem cells [9] = test: Fibrinolytic pathway activation and bone-marrow regeneration after lethal radiation (9Gy) and bone-marrow transplantation, compound a versus recombinant tPA (Experimental Example 7)
Experimental: Within 4 hours, 1.0×10^6 bone-marrow mononucleic cells (BM MNC) were intravenously inoculated into retro-orbital plexus. Concurrently with transplantation, compound a (dosage 100 mg/kg) or recombinant tPA (dosage 100 mg/kg, Eisai Co., Ltd) were administered as a test compound via oral gavage, and the test compound was orally administered for 5 consecutive days (administered group). As a control test, instead of the test compound, physiological saline (vehicle) used for dissolving compound a was orally administered in the same manner (control group).
Blood was collected 2 and 7 days after bone-marrow transplantation, and the active PAI-1 level (ng/mL), active tissue-type plasminogen activator (active tPA), plasmin level (ng/mL), cKit ligand, and total MMP-9 (Matrix metalloprotein-9) in the plasma were measured.

[10] = tPA group compared with control group, compound a group compared with tPA group

## O=C(COCC(=O)Nc1ccc(Cl)cc1C(=O)O)Nc1cccc(-c2ccco2)c1 [Example 61 (compound group 3), 5-chloro-2-{[(2-{[3-(furan-2-yl)phenyl]amino}-2-oxoethoxy)acetyl]amino}benzoic acid]
CML cells [1]; imatinib 150 mg/kg/day + compound d or compound e 10 mg/kg/day via gavage, day 8 to day 14
  survival: some mice survived even after day 40

## Cc1ccc(NC(=O)c2ccc(CN3CCN(C)CC3)cc2)cc1Nc1nccc(-c2cccnc2)n1 [imatinib, reference compound]
[2]
  frequency of 32Dp210-GFP cells in bone-marrow mononucleic cells: about 55%
  frequency of CML cells (32Dp210-GFP cells) in the spleen: about 76%
  survival: all of the mice died by day 40
[2]; placebo 14 days
  median survival period: 27 days
[3]
  survival: all of the mice died by day 35
[3]; placebo 15.5 days
  median survival period: 23.5 days
CML cells [4]; IM group: imatinib 150 mg/kg/day alone, placebo 15 days
  median survival period: 22 days
CML cells [4]; IM group: imatinib alone
  survival: all of the mice died by day 30
CML cells [4]; IM+anti-G-CSF group
  survival: all of the mice died by day 30
CML cells [4]; IM+anti-G-CSF group: imatinib 150 mg/kg/day + G-CSF neutralizing antibody 500 μg/kg/day
  median survival period: 23 days
CML cells [5]; imatinib 150 mg/kg/day alone, day 8 to day 14, analysed day 36
  CML (leukemia) cells in the bone marrow: 55.5%
CML cells [5]; imatinib alone, day 14, after 7 doses, about 50% before treatment
  proportion of CML cells in the bone marrow: marked decrease
CML cells [6]
  survival: all of the mice died by day 40
CML cells [1]; imatinib 150 mg/kg/day alone
  survival: all of the mice died by day 40

## tPA: recombinant tPA (tissue-type plasminogen activator), Eisai Co., Ltd
Hematopoietic stem cells [7]
  number of bone-marrow mononucleic cells: slightly larger
Hematopoietic stem cells [8]; compared with control group
  proportion of cells that were induced apoptosis (Annexin V): decrease
Hematopoietic stem cells [8]; control group 18.1%
  cells in the S phase (BrdU incorporated into LSK cells): 18.8%
Hematopoietic stem cells [8]; control group 43.3%
  Ki-67 positive, cells classified into the LSK fraction taken as 100%: 50.7%
Hematopoietic stem cells [8]; control group 44.2%
  cell count of cells at the S-G2-M phase (Ki-67) in bone-marrow mononucleic cells: 50.8%
Hematopoietic stem cells [8]; control group 55.8%
  cell count of cells at the G0/G1 phase (Ki-67) in bone-marrow mononucleic cells: 49.2%
Hematopoietic stem cells [9]; 2 days after bone-marrow transplantation, among control, tPA and compound a groups
  level of active tPA in plasma: highest level
Hematopoietic stem cells [9]; compound a or recombinant tPA 100 mg/kg, 5 consecutive days, 2 and 7 days after bone-marrow transplantation
  expression of active PAI-1 in the plasma: lower than that of the control group
Hematopoietic stem cells [9]; lethal radiation 9Gy, 100 mg/kg, 5 consecutive days, n=15, control group 20%
  survival rate on day 28 from bone-marrow transplantation: 50%
Hematopoietic stem cells [9]; [10]
  platelet count in the peripheral blood: significantly increased
  white blood cell count in the peripheral blood: significantly increased
